{"source": "patent US20250230172A1", "about": "(Vanqua Bio, Inc., priority 2021, published 2025)", "target": "T1, GCase (Homo sapiens, UniProt P04062)", "T1 construct": "endogenous in cells; host or cells: HeLa cells", "T1 sequence (P04062 40-536)": "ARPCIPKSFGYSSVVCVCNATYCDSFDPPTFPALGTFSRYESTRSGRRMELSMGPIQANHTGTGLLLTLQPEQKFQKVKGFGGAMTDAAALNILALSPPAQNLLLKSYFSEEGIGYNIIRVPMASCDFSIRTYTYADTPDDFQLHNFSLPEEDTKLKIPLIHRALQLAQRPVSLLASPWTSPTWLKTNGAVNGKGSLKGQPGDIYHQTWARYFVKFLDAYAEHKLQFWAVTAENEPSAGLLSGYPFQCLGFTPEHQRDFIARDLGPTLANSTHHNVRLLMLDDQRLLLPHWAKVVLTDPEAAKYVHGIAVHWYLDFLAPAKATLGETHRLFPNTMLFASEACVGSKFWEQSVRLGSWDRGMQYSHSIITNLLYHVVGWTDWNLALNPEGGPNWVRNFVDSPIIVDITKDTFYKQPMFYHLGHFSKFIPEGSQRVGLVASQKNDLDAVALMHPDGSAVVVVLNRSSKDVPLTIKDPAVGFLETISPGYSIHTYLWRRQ", "assay": "live cell PFB assay in HELA cells for activation of GCase", "assay_type": "cell-based", "description": "Exemplary compounds were evaluated for activation of GCase in a live cell PFB assay in HELA cells (essentially as described in Ysselstein et al., “LRRK2 kinase activity regulates lysosomal glucocerebrosidase in neurons derived from Parkinson's disease patients” Nature Communications (2019) 10:5570). […] EC50 ranges: A: <10 μM; B: >10-50 μM; C: >50-100 μM; D: >100 μM."}
{"molecule": "FC(F)Cn1ncc2ncc(-n3ncc4c3CCN(c3ncccc3C(F)(F)F)C4)nc21", "note": "[Compound 64, 1-(2,2-difluoroethyl)-6-(5-(3-(trifluoromethyl)pyridin-2-yl)-4,5,6,7-tetrahydro-1H-pyrazolo[4,3-c]pyridin-1-yl)-1H-pyrazolo[3,4-b]pyrazine]", "values": [{"measurement": "EC50", "value": "10 to 50", "unit": "µM"}]}
{"molecule": "CN(c1cnc2cnn(CC(F)F)c2n1)[C@H]1C[C@@H]2CN(c3cncc(C(F)(F)F)c3)C[C@@H]2C1", "note": "[Compound 54, (3aR,5S,6aS)—N-[1-(2,2-difluoroethyl)-1H-pyrazolo[3,4-b]pyrazin-6-yl]-N-methyl-2-[5-(trifluoromethyl)pyridin-3-yl]-octahydrocyclopenta[c]pyrrol-5-amine]", "values": [{"measurement": "EC50", "value": "10 to 50", "unit": "µM"}]}
{"molecule": "FC(F)Cn1ncc2ncc(N3CC[C@H]4CN(c5cccc(C(F)(F)F)n5)C[C@H]43)nc21", "note": "(racemic) [Compound 59, rac-2-[(3aR,6aR)-1-[1-(2,2-difluoroethyl)-1H-pyrazolo[3,4-b]pyrazin-6-yl]-octahydropyrrolo[3,4-b]pyrrol-5-yl]-6-(trifluoromethyl)pyridine]", "values": [{"measurement": "EC50", "value": "10 to 50", "unit": "µM"}]}
{"molecule": "FC(F)Cn1ncc2ncc(N[C@H]3C[C@@H]4CN(c5cnc(C(F)(F)F)nc5)C[C@@H]4C3)nc21", "note": "[Compound 88, 1-(2,2-difluoroethyl)-N-((3aR,5s,6aS)-2-(2-(trifluoromethyl)pyrimidin-5-yl)octahydrocyclopenta[c]pyrrol-5-yl)-1H-pyrazolo[3,4-b]pyrazin-6-amine]", "values": [{"measurement": "EC50", "value": "< 10", "unit": "µM"}]}
{"molecule": "O=C(c1ccc2ccn(C3COC3)c2c1)N1CC[C@@H]2CN(c3cc(C(F)(F)F)ccn3)C[C@@H]2C1", "note": "(racemic) [Compound 16, rac-6-[(3aR,7aS)-2-[4-(trifluoromethyl)pyridin-2-yl]-octahydro-1H-pyrrolo[3,4-c]pyridine-5-carbonyl]-1-(oxetan-3-yl)-1H-indole]", "values": [{"measurement": "EC50", "value": "10 to 50", "unit": "µM"}]}
{"molecule": "FC(F)Cn1ncc2ncc(N3CCN4C[C@H](Oc5cccnc5C(F)(F)F)C[C@H]4C3)nc21", "note": "[Compound 26, 3-{[(7R,8aS)-2-[1-(2,2-difluoroethyl)-1H-pyrazolo[3,4-b]pyrazin-6-yl]-octahydropyrrolo[1,2-a]pyrazin-7-yl]oxy}-2-(trifluoromethyl)pyridine]", "values": [{"measurement": "EC50", "value": "50 to 100", "unit": "µM"}]}
{"molecule": "FC(F)Cn1ncc2ncc(N3C[C@H]4CN(c5cc(C(F)(F)F)ccn5)C[C@H]4C3)nc21", "note": "[Compound 43, rac-2-[(3aR,6aS)-5-[1-(2,2-difluoroethyl)-1H-pyrazolo[3,4-b]pyrazin-6-yl]-octahydropyrrolo[3,4-c]pyrrol-2-yl]-4-(trifluoromethyl)pyridine]", "values": [{"measurement": "EC50", "value": "< 10", "unit": "µM"}]}
